Assay results from ChEMBL document CHEMBL3392976, “The discovery of novel 3-(pyrazin-2-yl)-1H-indazoles as potent pan-Pim kinase inhibitors” (Bioorg Med Chem Lett, 2015).

What was measured:
in vivo [1] = conditions: Sprague-Dawley, rat, iv, 2 mg/kg
in vivo [2] = conditions: Sprague-Dawley, rat, iv, 2 mg/kg; remark: listed apart in the source
in vivo [3] = conditions: Sprague-Dawley, rat, iv, 2 mg/kg; remark: listed apart in the source
in vivo [4] = conditions: Sprague-Dawley, rat, plasma, po, 5 mg/kg
in vivo [5] = conditions: Sprague-Dawley, rat, po, 5 mg/kg

Molecule `Fc1cccc(F)c1-c1ccc2[nH]nc(-c3cncc(O[C@H]4CNCCC45CC5)n3)c2c1` has a clearance (in vivo [1]) of 16.7 mL/min/kg, a Vd (in vivo [2]) of 3.7 L/kg and a half-life (in vivo [3]) of 2.7 h. The AUC (in vivo [4]) was 12.2 µM·h and the bioavailability (in vivo [5]) was 89%.
